Results from patent US10052304B2, “Compositions and methods for cancer therapy” (UNIVERSITY OF IOWA RESEARCH FOUNDATION, priority 2015, dated 2018).
“Also recorded” adds a separate entry of the source.

Experiments:
[1] = system: NCI-H292 xenografts
Procedure: Nude mice were injected with NCI-H292 cells into their flanks and tumors grown to a diameter of 2-4 mm.
(§1) Female 4-6 week old female athymic-nu/nu mice were purchased from Envigo (previously Harlan Laboratories) and housed in the Animal Care Facility at the University of Iowa (Iowa City, Iowa), and all procedures were approved by the University of Iowa Institutional Animal Care and Use Committee and conformed to NIH guidelines. 1×10^6 H292 or U87 cells were injected subcutaneously into the right rear flank and mice were euthanized and sacrificed when tumor length exceeded 1.5 cm in any dimension. Treatment regimens were as described in the text and are summarized in the Supplemental Experimental Procedures.
as §1, with “flank. […] Tumors were measured every other day with Vernier calipers (volume=(length×width×(width/2))” for “flank”, “dimension.” for “dimension. Treatment regimens were as described in the text and are summarized in the Supplemental Experimental Procedures.”

[2] = Ascorbate quantification in mouse plasma, tumor and CSF after IP ascorbate; assay type: in vivo, mice
Procedure: Tumor xenografts were excised and flash frozen in liquid nitrogen until analysis. Mouse whole blood was collected by cardiac puncture, and plasma was collected after the sample was centrifuged at 500 g for 10 min and frozen until analysis. For patient samples, whole blood was collected from clinical trial patients (NaHeparin 75 USP units, BD Vacutainer® green top blood collection tube, 4 mL), and plasma was collected after centrifugation at 500 g for 10 min and aliquoted and stored at −80° C. until analysis.
Tumor xenografts were excised and flash frozen in liquid nitrogen until analysis. Mouse whole blood was collected by cardiac puncture, and plasma was collected after the sample was centrifuged at 500 g for 10 min and frozen until analysis. For patient samples, whole blood was collected from clinical trial patients (NaHeparin 75 USP units, BD Vacutainer® green top blood collection tube, 4 mL), and plasma was collected after centrifugation at 500 g for 10 min and aliquoted and stored at −80° C. until analysis. […] Briefly, samples were extracted in a buffer containing 90% methanol and 10% water with 250 μM DETAPAC (90:10, v/v), mixed, and incubated on ice for 10 min to precipitate protein. The samples were clarified by centrifugation (16 g, 10 min) with an Eppendorf model 5415D Microfuge. Specifically, samples were diluted at a ratio of 50 μL of plasma to 450 μL extraction buffer. These samples were then further diluted another 77.5 to 105-fold (therefore, 775-1,050 fold overall) in a buffer containing 72% methanol and 28% water with 250 μM DETAPAC (72:28, v/v). […] This protocol ensured that all samples had identical methanol content which is critical for accurate quantification (Vislisel et al., 2007). 100 μL aliquots of the samples or standards were placed in 96-well optical bottom black plates (Thermo Fisher Scientific, Rochester, N.Y., USA). The assay was initiated at room temperature by adding 100 μL of 2.3 mM 4-hydroxy-2,2,6,6-tetramethylpiperidinyloxyl (Tempol) in 2 M sodium acetate trihydrate buffer previously adjusted to pH 5.5 with acetic acid. […] Subsequently, 42 μL of 5.5 mM ortho-phenylenediamine (oPDA) in 2 M sodium acetate buffer (pH 5.5) was added to the samples. Kinetic measurements were immediately initiated and collected every 22 s using a TECAN SpectraFluor Plus plate reader (Tecan, Research Triangle Park, N.C., USA) for the fluorescent condensation product of the reaction of oPDA with DHA (3-dihydroxyethyl)furo[3,4-b]quinoxaline-1-one; λex=345 nm, λem=425 nm). […] Briefly, plasma samples were measured spectrophotometrically (265 nm; ε=13,000 M-1 cm-1) using an Implen Nanophotometer P-330 with a 250× dilution lid, path length=4.00×10-3 cm. The blank for each sample was a pair-‘pre-infusion’ plasma sample, which allowed removal of the background absorbance of plasma proteins and other constituents.
Briefly, mice were anesthetized (17.5 mg ml^−1 ketamine/2.5 mg ml^−1 xylazine mixture), restrained in a stereotaxic frame with an acute head angle, and the dura mater covering the foramen magnum was surgically exposed. CSF was collected by capillary action following minimal puncture of the dura mater and frozen until EPR analysis. Ascorbyl radical EPR spectra were obtained by placing the capillary tube into the bottom of a 250 mm×3 mm (ID) thin walled quartz EPR tube (707-SQ-250M Wilmad-Lab Glass, Vineland, N.J.) centered in a Bruker HS EPR cavity (Bruker, Billerica, Mass.). […]

[3] = system: ARP1 myeloma cells; test: Luciferase-labeled ARP1 myeloma xenograft, intravenous injection, NOD-SCID mice; assay type: in vivo; settings: ascorbate 4 g/kg daily
From the text: The first model used is a luciferase labeled human myeloma cell line ARP1.

[4] = system: advanced stage NSCLC patients; test: Phase II clinical trial of pharmacological ascorbate with carboplatin and paclitaxel in advanced stage NSCLC; assay type: in vivo, human
Procedure: This phase II clinical trial was registered with clinicaltrials.gov (NCT 02420314) prior to enrollment of the first subject. Newly diagnosed advanced stage NSCLC patients were invited to participate.
Whole blood was collected from patients around infusions.
(§2) We have not seen any unexpected or unusual increase in Grade 3/4 toxicities as compared to previously published literature, although it remains too early for a direct comparison. Responses to therapy were determined per RECIST 1.1 criteria (Eisenhauer et al., 2009). Currently, four of six patients have completed the trial with imaging-confirmed partial responses to therapy. […] Finally, one patient progressed with a new spinal lesion, although the target lesions are stable; this patient has been transitioned off of the trial.
as §2, with “This phase II clinical trial was registered with clinicaltrials.gov (NCT 02420314) prior to enrollment of the first subject. Newly diagnosed advanced stage NSCLC patients were invited to participate. […] We” for “We”, “a total” for “four”, “eleven subjects have been recruited to the trial, seven of which are currently evaluable for response. Five of seven” for “six”

[5] = system: NSCLC cells; test: Cellular labile iron pool (Calcein-AM flow cytometry), NSCLC cells; assay type: cell-based, human; settings: increasing doses of ascorbate
Procedure: (§3) The labile iron pool (LIP) was visualized using the fluorescent dye Calcein-AM as previously described (Epsztejn et al., 1997) with modifications. After labeling, samples were divided into two flow cytometry sample tubes, to which 100 μM 2′,2′-bipyridyl (BIP) was added to one tube and analyzed by flow cytometry. BIP tubes were incubated for at least 15 minutes before analysis to allow for full chelation of intracellular labile iron. The LIP (A.U.)=MFIBIP−MFINoBIP was normalized against the control samples to calculate the relative labile iron pool.
(§4) The labile iron pool (LIP) was visualized using the fluorescent dye Calcein-AM as previously described with modifications (Epsztejn et al., 1997). Briefly, after sample treatment, cells were trypsinized, spun at 1,200 rpm for 5 min, and resuspended at approximately 1×10^6 cells mL-1 in 500 nM Calcein-AM in PBS. Samples were incubated for 15 min at 4% O2 in a humidity controlled environment (37° C., 5% CO2). Subsequently, samples were pelleted, washed in PBS, and resuspended in 1 mL PBS before dividing each sample into two flow cytometry sample tubes, to which 100 μM 2′,2′-bipyridyl (BIP) was added to one tube. Samples were kept at room temperature and analyzed on a LSR II Flow Cytometer (BD Biosciences; λex=488 nm, λem=515/20 nm). […]

[6] = system: GBM cells; test: Cellular labile iron pool (Calcein-AM flow cytometry), GBM cells; assay type: cell-based, human; settings: increasing doses of ascorbate
Procedure: as §3, §4

[7] = Example 1: two hours after last radiation treatment, 4 g/kg IP
[8] = Example 4: 1 h after IP ascorbate 4 g kg^−1, H292 xenograft mice
[9] = first six patients, ascorbate 75 g twice weekly + carboplatin/paclitaxel

With O=C1O[C@H]([C@@H](O)CO)C(O)=C1O [ascorbate, L-ascorbic acid] as the compound, how does the “survival of xenograft-bearing mice” value ([1]; Example 1: ascorbate 4 g/kg IP daily + 12 Gy/6fx IR + weekly 15 mg/kg carboplatin vs chemo-radiation alone) read?
Its value is “survived significantly longer”.

What about the “tolerability (lack of weight loss)” value ([1]; Example 1: ascorbate 4 g/kg IP daily, alone or with chemo-radiation) of the same compound?
The value was “well-tolerated”.

And the “tolerability (mouse weight)” value ([1]; Example 4: ascorbate 4 g kg^−1 IP daily)?
Its value is “well tolerated”.

What about the overall survival ([1]; Example 4: ascorbate 4 g kg^−1 IP daily + 12 Gy IR/2 fractions + weekly 15 mg kg^−1 CPL) of the same compound?
The overall survival was “significantly increased overall survival”.

And the “plasma ascorbate concentration vs non-ascorbate treated mice” value [2, 7]?
Its value is “significantly higher”.

What about the “tumor ascorbate concentration vs non-ascorbate treated mice” value [2, 7] of the same compound?
The value was “significantly higher”.

What about the “ascorbate level in plasma” value [2, 8] of the same compound?
The value was “significantly increased ascorbate levels”.

And the “ascorbate level in tumor” value [2, 8]?
Its value is “significantly increased ascorbate levels”.

What about the “ascorbate level in cerebrospinal fluid (ascorbyl radical EPR)” value ([2]; Example 4: 1 h after IP ascorbate 4 g kg^−1, healthy nude mice) of the same compound?
Its value is “significantly increased ascorbate levels”.

And the tumor growth rate [3]?
The tumor growth rate was “significantly decreased tumor growth rate”.

What about the “decrease of mean tumor fluorescent intensity vs control” value ([3]; approximately 15 days) of the same compound?
The value was 59%.

And the “patient plasma ascorbate level” value ([4]; after 75 g IV infusions)?
The value was 16.4 ± 0.5 mM.

What about the “patients with imaging-confirmed partial responses (RECIST 1.1)” value ([4]; ascorbate + carboplatin/paclitaxel, evaluable patients to date) of the same compound?
Its value is “four of six; also recorded: Five of seven”.

And the disease control rate [4, 9]?
Its disease control rate is 83%.

And the objective response rate [4, 9]?
Its objective response rate is 67%.

And the “grade 3/4 toxicities attributed to ascorbate” value ([4]; through 134 total infusions)?
The value was “no grade 3/4 toxicities attributed to ascorbate”.

What about the “cellular LIP after ascorbate” value [5] of the same compound?
Its value is “significant dose-dependent ascorbate-induced increases in cellular LIP”.

What about the “cellular LIP after ascorbate” value [6] of the same compound?
The value was “significant dose-dependent ascorbate-induced increases in cellular LIP”.
